Measurements: ChEMBL document CHEMBL1131433, “The bioactive conformation of aminoalkylindoles at the cannabinoid CB1 and CB2 receptors: insights gained from (E)- and (Z)-naphthylidene indenes” (J Med Chem, 1998)

Organism: Cavia porcellus
Assay: Compound was evaluated for maximum inhibition of electrically evoked contractions of the myenteric plexus-longitudinal muscle of the Guinea pig small intestine
Format: functional
Conditions: Muscle tissue

| Structure (SMILES) | Emax |
| --- | --- |
| Cc1c(C(=O)c2cccc3ccccc23)c2cccc3c2n1[C@H](CN1CCOCC1)CO3 [WIN-552122] | 61.9% |

Organism: Cavia porcellus
Assay: Compound was evaluated for inhibition of electrically evoked contractions of the myenteric plexus-longitudinal muscle of the Guinea pig small intestine
Format: functional
Conditions: Muscle tissue

| Structure (SMILES) | EC50 |
| --- | --- |
| Cc1c(C(=O)c2cccc3ccccc23)c2cccc3c2n1[C@H](CN1CCOCC1)CO3 [WIN-552122] | 4.92 nM |
| CC1=C(CCN2CCOCC2)c2ccccc2C1=Cc1cccc2ccccc12 [listing 1 of 2 here] | > 3160 nM |
| C1=C(CCN2CCOCC2)c2ccccc2/C1=C/c1cccc2ccccc12 | 6.57 nM |
| C1=C(CCN2CCOCC2)c2ccccc2/C1=C\c1cccc2ccccc12 | 283 nM |
| CC1=C(CCN2CCOCC2)c2ccccc2C1=Cc1cccc2ccccc12 [listing 2 of 2 here] | 52.9 nM |
